Calls of active or inactive are those of the source.
Assays:
[1] = cytotoxicity toward NIH3T3 fibroblasts, dose response, counter-screen, cell-based, ATP luminescence, mouse fibroblasts (AID 2010); format: functional;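 also: cells exposed to compound for about 90 hours before reading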
[2] = inhibitors of intracellular T. cruzi replication, confirmation, NIH3T3 host cells, beta-gal luminescence (AID 2044); format: functional, cell-based;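 also: intracellular parasites grown in NIH/3T3 mouse fibroblasts as host cells; luminescent beta-galactosidase reporter signal from transgenic T. cruzi replicating inside host cells; inhibitors lower the luminescence signal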
Cytochrome P450 2D6 = Cytochrome P450 2D6 (Homo sapiens, UniProt P10635);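 also: CYP2D6 member of a cytochrome P450 panel assay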
Sequence of Cytochrome P450 2D6 (P10635 whole entry): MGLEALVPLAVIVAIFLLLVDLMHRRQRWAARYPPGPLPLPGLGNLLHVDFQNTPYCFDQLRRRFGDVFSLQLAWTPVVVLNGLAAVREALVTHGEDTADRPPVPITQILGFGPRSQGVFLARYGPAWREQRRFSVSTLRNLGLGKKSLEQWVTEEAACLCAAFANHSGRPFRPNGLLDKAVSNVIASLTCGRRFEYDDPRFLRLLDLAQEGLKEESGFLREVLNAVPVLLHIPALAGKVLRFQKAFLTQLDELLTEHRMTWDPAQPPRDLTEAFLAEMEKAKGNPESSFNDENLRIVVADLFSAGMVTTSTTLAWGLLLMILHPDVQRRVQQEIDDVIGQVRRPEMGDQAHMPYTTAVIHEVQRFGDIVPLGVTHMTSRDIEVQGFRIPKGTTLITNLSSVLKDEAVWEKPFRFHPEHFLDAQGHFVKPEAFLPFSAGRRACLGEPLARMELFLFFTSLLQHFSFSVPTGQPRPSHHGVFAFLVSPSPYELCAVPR

[3] = molecular target: Luciferin 4-monooxygenase (Photinus pyralis, UniProt P08659); assay: firefly luciferase enzyme inhibitors, dose response, biochemical, luminescence (AID 1891)
Sequence of Luciferin 4-monooxygenase (P08659 whole entry): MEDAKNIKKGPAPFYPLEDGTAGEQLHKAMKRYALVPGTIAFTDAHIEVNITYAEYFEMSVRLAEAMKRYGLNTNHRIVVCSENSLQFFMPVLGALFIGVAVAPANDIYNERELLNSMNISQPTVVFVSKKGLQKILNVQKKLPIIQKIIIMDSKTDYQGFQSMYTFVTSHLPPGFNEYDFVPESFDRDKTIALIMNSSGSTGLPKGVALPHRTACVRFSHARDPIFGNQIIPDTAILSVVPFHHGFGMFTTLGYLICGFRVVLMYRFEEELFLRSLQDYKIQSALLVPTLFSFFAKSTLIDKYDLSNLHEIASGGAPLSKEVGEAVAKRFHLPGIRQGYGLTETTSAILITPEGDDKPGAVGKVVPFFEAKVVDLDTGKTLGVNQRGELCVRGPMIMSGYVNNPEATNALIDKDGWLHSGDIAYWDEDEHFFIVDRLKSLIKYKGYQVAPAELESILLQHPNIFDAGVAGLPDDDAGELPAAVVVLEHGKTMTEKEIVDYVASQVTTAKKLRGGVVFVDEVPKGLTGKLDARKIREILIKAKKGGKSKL

[4] = Luminescence Cell-Based Dose Confirmation HTS to Identify Inhibitors of Platelet Dense Granule Release. [Related pubchem assays: 1663 (Primary HTS), 1678 (Summary of Project)]; format: functional
Cytochrome P450 2C19 = Cytochrome P450 2C19 (Homo sapiens, UniProt P33261); assay: Cytochrome panel assay with activity outcomes. Panel member name: p450-cyp2c19 Compounds with AC50 equal or less than 10 uM are considered active; format: functional
Sequence of Cytochrome P450 2C19 (P33261 whole entry): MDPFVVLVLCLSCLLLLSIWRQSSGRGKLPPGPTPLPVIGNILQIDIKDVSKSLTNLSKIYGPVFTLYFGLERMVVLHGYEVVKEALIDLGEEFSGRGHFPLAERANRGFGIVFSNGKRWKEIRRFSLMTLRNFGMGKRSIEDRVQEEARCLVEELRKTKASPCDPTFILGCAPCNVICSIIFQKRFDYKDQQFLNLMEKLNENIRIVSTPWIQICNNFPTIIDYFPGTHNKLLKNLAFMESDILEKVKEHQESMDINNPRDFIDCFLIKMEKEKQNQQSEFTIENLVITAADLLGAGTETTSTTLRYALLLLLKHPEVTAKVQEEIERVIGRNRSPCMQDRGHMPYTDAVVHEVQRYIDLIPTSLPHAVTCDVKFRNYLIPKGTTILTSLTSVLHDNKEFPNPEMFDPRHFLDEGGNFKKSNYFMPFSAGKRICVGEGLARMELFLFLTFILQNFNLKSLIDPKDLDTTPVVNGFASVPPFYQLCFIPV

[5] = HEp-2 cell cytotoxicity, dose response, cytotoxicity control for RSV inhibitor project, HTS (AID 2410); format: functional; conditions: human respiratory syncytial virus
[6] = molecular target: T1, Corticotropin-releasing factor receptor 2/Corticotropin-releasing factor-binding protein (Homo sapiens, UniProt P24387+Q13324); assay: activators of CRF receptor 2 with binding protein – uHTS hits, confirmation (AID 602473); format: functional; conditions: read-out: EC50_Mean
T1 sequence (Q13324 whole entry): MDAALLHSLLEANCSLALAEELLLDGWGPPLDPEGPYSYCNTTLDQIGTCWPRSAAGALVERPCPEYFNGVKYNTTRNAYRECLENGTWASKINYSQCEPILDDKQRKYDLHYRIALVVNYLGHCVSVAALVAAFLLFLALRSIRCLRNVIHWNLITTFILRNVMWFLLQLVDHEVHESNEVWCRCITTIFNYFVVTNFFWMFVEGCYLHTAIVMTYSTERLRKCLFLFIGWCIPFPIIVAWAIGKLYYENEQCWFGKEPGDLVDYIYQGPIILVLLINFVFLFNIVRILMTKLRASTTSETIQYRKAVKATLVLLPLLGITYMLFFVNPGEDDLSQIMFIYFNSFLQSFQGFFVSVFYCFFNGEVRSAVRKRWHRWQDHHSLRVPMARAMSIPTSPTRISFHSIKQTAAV
T1 sequence (P24387 whole entry): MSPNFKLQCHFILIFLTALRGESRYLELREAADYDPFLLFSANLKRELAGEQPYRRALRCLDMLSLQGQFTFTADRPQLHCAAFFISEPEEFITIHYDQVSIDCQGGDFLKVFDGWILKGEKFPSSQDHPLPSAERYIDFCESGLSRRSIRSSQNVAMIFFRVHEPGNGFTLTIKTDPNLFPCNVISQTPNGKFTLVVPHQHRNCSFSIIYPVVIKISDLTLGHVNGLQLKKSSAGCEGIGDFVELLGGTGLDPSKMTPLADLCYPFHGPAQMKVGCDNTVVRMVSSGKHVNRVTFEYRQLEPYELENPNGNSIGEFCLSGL

[7] = test system: Streptococcus sp. 'group A'; assay: growth inhibition of control SK(-) GAS strain, dose response, counter-screen for streptokinase expression inhibitor project, luminescence, kanamycin, BacTiterGlo, confirmation (AID 1900); format: functional, organism-based
Streptococcus = assay: Group A Streptococcus viability loss, dose response, counter-screen for streptokinase expression inhibitor project, luminescence, BacTiterGlo (AID 1915); format: functional, organism-based;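 also: potency for reduction of bacterial viability or growth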

## Cc1nn(C)c(Cl)c1CN1CCCC(CCC(=O)NCc2ccccc2F)C1 (configuration not stated)
[1]
  EC50: > 30 µM (not active)
[2]
  EC50: 0.181 µM (active)

## Cc1nc2c(C(=O)NCc3ccco3)cnn2c(C)c1Cc1ccc(F)cc1Cl
[1]
  EC50: > 30 µM (not active)
[2]
  EC50: 2.17 µM (active)

## Cc1cc2cc3c(cc2nc1SCC(=O)Nc1c(C)cccc1C)CCC3
Cytochrome P450 2D6
  AC50: 14.1 µM (inconclusive)

## CCOC(=O)c1cnc2c(C#N)c(C)nn2c1-c1ccccc1
[3]
  EC50: > 112 µM (not active)
[4]
  EC50: 54.1 µM (active)

## O=C1OCCC=C1[C@@H](O)CCc1ccccc1
Cytochrome P450 2C19; read-out: AC50
  AC50: 0.316 µM (inconclusive)

## CC1CCCCN1S(=O)(=O)c1ccc(S(=O)(=O)N(Cc2ccccc2)Cc2ccco2)cc1 (configuration not stated)
[1]
  EC50: > 60 µM (not active)
[2]
  EC50: 1.09 µM (active)

## COc1ccc(N(CC(=O)NCCC2=CCCCC2)S(=O)(=O)c2ccccc2)cc1OC
[1]
  EC50: > 60 µM (not active)
[2]
  EC50: 3.35 µM (active)

## Cc1ccc(-c2nc(SC(C)C(=O)N3CCOCC3)n[nH]2)cc1 (configuration not stated)
[3]
  EC50: > 112 µM (not active)
[4]
  EC50: > 112 µM (not active)

## COc1ccc(-c2noc(CCCC(=O)NCC3CCCO3)n2)cc1 (configuration not stated)
[5]
  CC50: 30.3 µM (active)

## CCOc1ccc(C(=O)O/N=C(\N)c2ccccn2)cc1OCC
[3]
  EC50: > 112 µM (not active)
[4]
  EC50: > 112 µM (not active)

## Cc1ccc(C)c(OCC(O)CN2CCc3ccccc3C2)c1C (configuration not stated)
[5]
  CC50: 46.3 µM (active)

## Cc1ccc(NC(=O)C(=O)NCc2ccc(/C=C(/C#N)C(=O)NCc3cccnc3)o2)cc1
Cytochrome P450 2C19; read-out: AC50
  AC50: 7.08 µM (inconclusive)

## CCc1ccc(C(C(=O)NCc2ccc(OC)cc2)N(CCOC)C(=O)Cc2cccs2)cc1 (configuration not stated)
Cytochrome P450 2D6
  AC50: 25.1 µM (inconclusive)

## Nc1nn(S(=O)(=O)c2ccccc2)cc1-c1cccc([N+](=O)[O-])c1
[1]
  EC50: > 60 µM (not active)
[2]
  EC50: 1.83 µM (active)

## O=C(CCCc1ccccn1)c1ccccc1
Cytochrome P450 2C19; read-out: AC50
  AC50: 2.51 µM (inconclusive)

## Cc1nn(C)cc1CNC(=O)C1CCC(=O)N(CC2CCCCC2)C1 (configuration not stated)
[3]
  EC50: > 112 µM (not active)
[4]
  EC50: > 112 µM (not active)

## c1ccc(-c2cc3c(N4CCCC4)ncnc3s2)cc1
[5]
  CC50: > 50 µM (active)

## O=C(c1ccc(Cl)cc1)C1CCCN(Cc2cnn(-c3ccccc3)c2)C1 (configuration not stated)
[1]
  EC50: > 60 µM (inconclusive)
[2]
  EC50: 0.503 µM (active)

## Cn1c(=O)c2c(SCC(=O)N3CCCc4ccccc43)nc(CC(C)(C)C)nc2n(C)c1=O
[5]
  CC50: > 50 µM (active)

## CCOc1ccccc1C1c2[nH]c3ccccc3c2C[C@H]2C(=O)N(C3CCN(Cc4ccccc4)CC3)CC(=O)N12 (some centres not stated)
[1]
  EC50: > 60 µM (not active)
[2]
  EC50: 2.15 µM (active)

## O=C(c1cccc(F)c1)N1CCC2(CCCN(Cc3ccccc3)C2)CC1
Cytochrome P450 2D6
  AC50: 10 µM (inconclusive)

## CCOC(=O)c1c(NC(=O)CN2C(=O)NC3(CCCCC3C)C2=O)sc(C)c1CC (configuration not stated)
[1]
  EC50: > 60 µM (not active)
[2]
  EC50: 2.37 µM (active)

## CCN(CC)S(=O)(=O)c1ccc(NN=C2CCN(C)CC2)c([N+](=O)[O-])c1
[1]
  EC50: > 60 µM (not active)
[2]
  EC50: 0.482 µM (active)

## COc1cc(OC)c(OC)cc1/C=C1/Cc2ccccc2C1=O
[6]
  EC50: 5.48 µM (active)

## COc1cccc(-c2cc(C(=O)Nc3ccc(N(C)C(C)=O)cc3)c3cc(Br)ccc3n2)c1
[1]
  EC50: > 60 µM (not active)
[2]
  EC50: 1.83 µM (active)

## CCOCCCN1C(=O)CN(C2CCC(C)CC2)C(=O)C1c1ccc(C)cc1 (configuration not stated)
[3]
  EC50: > 112 µM (not active)
[4]
  EC50: > 112 µM (not active)

## Nc1ccn(-c2ccc(Cl)cc2)c(=O)c1
[3]
  EC50: > 112 µM (not active)
[4]
  EC50: > 112 µM (not active)

## O=C(Nc1cccc(F)c1)N1CCC2(CCNCC2)CC1
Cytochrome P450 2D6
  AC50: 12.6 µM (inconclusive)
Cytochrome P450 2C19; read-out: AC50
  AC50: 20 µM (inconclusive)

## COc1ccc(Cl)cc1Nc1nc(-c2sc(NC(=O)c3ccco3)nc2C)cs1
[5]
  CC50: 35.4 µM (active)

## COC(=O)c1c(NC(=O)C2CC(=O)NN2Cc2ccccc2)sc(C)c1C (configuration not stated)
[3]
  EC50: > 112 µM (not active)
[4]
  EC50: > 112 µM (not active)

## N#Cc1c(-c2ccc3c(c2)OCO3)ccn2nc(-c3cccc(C(F)(F)F)c3)nc12
Cytochrome P450 2D6
  AC50: 3.16 µM (inconclusive)

## CNc1ccc(Oc2nc([N+](=O)[O-])nn2C)cc1
[1]
  EC50: > 60 µM (not active)
[2]
  EC50: 1.43 µM (active)

## COC(=O)c1c(NC(=O)CN2C(=O)NC3(CCC(C(C)(C)C)CC3)C2=O)sc2c1CCCCC2 (configuration not stated)
[1]
  EC50: > 60 µM (not active)
[2]
  EC50: 3.11 µM (active)

## O=C(Nc1ncc(Cc2ccc(Cl)cc2Cl)s1)c1ccc([N+](=O)[O-])cc1
[6]
  EC50: > 53 µM (inactive)

## CN(C)CCOC(=O)C1(c2ccccc2)CCCC1
[3]
  EC50: > 112 µM (not active)
[4]
  EC50: > 112 µM (not active)

## c1ccc2c(N3CCCCCC3)nc(-c3ccncc3)nc2c1
[5]
  CC50: 15.9 µM (active)

## CC(=O)OCCN1C(=O)c2cccc3cc([N+](=O)[O-])cc(c23)C1=O
[1]
  EC50: > 30 µM (not active)
[2]
  EC50: 0.358 µM (active)

## O=C(O)CC1(CC(=O)O)Nc2ccccc2SC1=O
Cytochrome P450 2C19
  AC50: inconclusive

## CSc1scc2c1-c1nc(SCC(=O)C(C)(C)C)ncc1CC2
[5]
  CC50: 20.6 µM (active)

## CCc1ccc2nc(O)c(CN(Cc3ccccc3)C(=O)Nc3ccccc3OC)cc2c1
[1]
  EC50: > 60 µM (not active)
[2]
  EC50: 1.93 µM (active)

## COc1ccc(-n2nc3c(N4CCC(C(=O)N5CCCCCC5)CC4)nnc(C)c3c2C)cc1
[1]
  EC50: > 60 µM (not active)
[2]
  EC50: 0.858 µM (active)

## COC(=O)[C@@]1(Cc2ccc(OC)cc2)[C@H]2c3cc(C(=O)N(C)C)n(C)c3C[C@H]2CN1C(=O)c1ccccc1
Cytochrome P450 2C19; read-out: AC50
  AC50: 25.1 µM (inconclusive)

## COC(=O)Cn1c(=N)n(CCN2CCCCC2)c2ccccc21
Cytochrome P450 2D6
  AC50: 44.7 µM (inconclusive)

## Sc1ncnc2c1sc1nc(N3CCOCC3)c3c(c12)CCCC3
[5]
  CC50: > 50 µM (active)

## COc1ccc(CN2CCNC(=O)C2CC(=O)NCC(C)(C)N2CCOCC2)cc1C (configuration not stated)
[3]
  EC50: > 112 µM (not active)
[4]
  EC50: > 112 µM (not active)

## CCOC(=O)/C=c1/s/c(=C/c2ccc3cc(OC)ccc3c2)c(=O)n1CC(=O)NCc1ccc2c(c1)OCO2
[6]
  EC50: 4.9 µM (active)

## COc1cc(C)c(C)cc1S(=O)(=O)N1CCCc2ccccc21
[6]
  EC50: 5.44 µM (active)

## COc1cc(N2CCOCC2)ncn1
Cytochrome P450 2C19; read-out: AC50
  AC50: 0.00562 µM (inconclusive)

## Cc1cccc(OCC(=O)NNC(=O)CSc2ncc(C#N)c(N)n2)c1
Cytochrome P450 2D6
  AC50: 4.47 µM (inconclusive)
Cytochrome P450 2C19; read-out: AC50
  AC50: 15.8 µM (inconclusive)

## Nc1cccc2c1Cc1cc([N+](=O)[O-])ccc1-2
[6]
  EC50: > 53 µM (inactive)

## Fc1ccc(/C=N/Nc2nccnc2Cl)cc1
[3]
  EC50: 8.1 µM (active)
[4]
  EC50: 1.65 µM (active)

## Cc1c(/C=N/NC(=O)C(NC(=O)c2ccc3c(c2)OCO3)C(C)C)c2ccccc2n1C (configuration not stated)
[6]
  EC50: 1.24 µM (active)

## CC(=O)c1sc(N/N=C\c2c(O)ccc3ccccc23)nc1C
[7]
  EC50: 4.07 µM (active)
Streptococcus
  EC50: 7.49 µM (active)

## CN(C)c1ccc(/C=N/N=C(N)N)cc1[N+](=O)[O-]
[1]
  EC50: > 60 µM (not active)
[2]
  EC50: 0.144 µM (active)

## NC(=S)N/N=C/c1ccc(-c2cc(Cl)cc(Cl)c2)o1
[1]
  EC50: > 60 µM (not active)
[2]
  EC50: 2.67 µM (active)

## COc1cc(O)oc1/C=N/c1ccc(Cl)cc1
Cytochrome P450 2D6
  AC50: 14.1 µM (inconclusive)

## C[C@@H]1CN(CCCn2c3ccccc3c3ccccc32)C[C@H](C)N1 [RIMCAZOLE]
Cytochrome P450 2D6
  AC50: 15.8 µM (inconclusive)
